A short description of data set [1]: Cellular toxicity in the HIV cell-line MT-4. It is filed as cell-based. As to conditions: human, MT-4 cells, read-out: CC50 (μM) (MT4). The source says: (§1) Also the HIV activity is given (EC50 HIV (μM)) and the cellular toxicity in the HIV cell-line (CC50 (μM) (MT-4)).
The test system of data set [2] is HIV. Description: HIV activity. It is filed as cell-based. As to conditions: Human immunodeficiency virus 1, read-out: EC50 (μM) (HIV).
Text: as §1

The test system of a further data set is HCV type 1b replicon. Description: HCV replicon assay (Huh-Luc cells, luciferase readout). As to conditions: Hepatitis C virus, 72 h, read-out: EC50 (μM) (HCV). The format is cell-based. The source says:
(§2) The in vitro antiviral activity against HCV of the compounds of formula I can be tested in a cellular HCV replicon system based on Lohmann et al. (1999) Science 285:110-113, with the further modifications described by Krieger et al. (2001) Journal of Virology 75: 4614-4624 (incorporated herein by reference), which is further exemplified in the examples section. This model, while not a complete infection model for HCV, is widely accepted as the most robust and efficient model of autonomous HCV RNA replication currently available. It will be appreciated that it is important to distinguish between compounds that specifically interfere with HCV functions from those that exert cytotoxic or cytostatic effects in the HCV replicon model, and as a consequence cause a decrease in HCV RNA or linked reporter enzyme concentration. Assays are known in the field for the evaluation of cellular cytotoxicity based for example on the activity of mitochondrial enzymes using fluorogenic redox dyes such as resazurin. Furthermore, cellular counter screens exist for the evaluation of non-selective inhibition of linked reporter gene activity, such as firefly luciferase. Appropriate cell types can be equipped by stable transfection with a luciferase reporter gene whose expression is dependent on a constitutively active gene promoter, and such cells can be used as a counter-screen to eliminate non-selective inhibitors.
The compounds of formula I were examined for activity in the inhibition of HCV-RNA replication in a cellular assay. […] The cellular assay was based on a bicistronic expression construct, as described by Lohmann et al. (1999) Science vol. 285 pp. 110-113 with modifications described by Krieger et al. (2001) Journal of Virology 75: 4614-4624, in a multi-target screening strategy.
In essence, the method was as follows. The assay utilized the stably transfected cell line Huh-7 luc/neo (hereafter referred to as Huh-Luc). This cell line harbors an RNA encoding a bicistronic expression construct comprising the wild type NS3-NS5B regions of HCV type 1b translated from an internal ribosome entry site (IRES) from encephalomyocarditis virus (EMCV), preceded by a reporter portion (FfL-luciferase), and a selectable marker portion (neo^R, neomycine phosphotransferase). The construct is bordered by 5′ and 3′ NTRs (non-translated regions) from HCV genotype 1b. Continued culture of the replicon cells in the presence of G418 (neo^R) is dependent on the replication of the HCV-RNA. The stably transfected replicon cells that express HCV-RNA, which replicates autonomously and to high levels, encoding inter alia luciferase, were used for screening the antiviral compounds.
The replicon cells were plated in 384-well plates in the presence of the test and control compounds which were added in various concentrations. Following an incubation of three days, HCV replication was measured by assaying luciferase activity (using standard luciferase assay substrates and reagents and a Perkin Elmer ViewLux™ ultraHTS microplate imager). Replicon cells in the control cultures have high luciferase expression in the absence of any inhibitor. The inhibitory activity of the compound on luciferase activity was monitored on the Huh-Luc cells, enabling a dose-response curve for each test compound. EC50 values were then calculated, which value represents the amount of the compound required to decrease the level of detected luciferase activity by 50%, or more specifically, the ability of the genetically linked HCV replicon RNA to replicate.

A short description of data set [3]: Cytotoxicity in Huh-7 cells. The format is cell-based. To be noted: human.
Text: as §2, with “inhibitors. […]” for “inhibitors.”

The subject of data set [4] is HIV. As to conditions: described in Org. Biomol. Chem., 2003, 3514-3526; cited from earlier work.
[5] abbreviates: Huh-Luc replicon cells, HCV type 1b, three days incubation, luciferase activity.

The structures appear in SMILES notation. Where two headings read alike, the source gives them in different places.

Turning to `C[C@H](NP(=O)(OC[C@H]1O[C@@H](n2ccc(=O)[nH]c2=O)[C@@]2(CCO2)[C@@H]1O)Oc1ccc(Cl)cc1)C(=O)OCc1ccccc1` (stereo partly drawn) [Compound 12j], the CC50 in data set [1] and in data set [3] was > 98 µM throughout. The EC50 – broadly, the concentration needed to bring the measured effect to its halfway point – in the data set with HIV [2] was > 98 µM; in the data set on HCV type 1b replicon (setting [5]) it was 0.7 µM.

Regarding `CC(C)OC(=O)[C@H](C)NP(=O)(OC[C@H]1O[C@@H](n2ccc(=O)[nH]c2=O)[C@@]2(CCO2)[C@@H]1O)Oc1ccccc1` (stereo partly drawn) [Compound 12g], the CC50 in data set [1] and in data set [3] was > 98 µM in each case. Also, the EC50 was > 98 µM in the data set with HIV [2] and 17.8 µM in the data set with HCV type 1b replicon (setting [5]).

Regarding `CCCCOC(=O)[C@H](C)NP(=O)(OC[C@H]1O[C@@H](n2ccc(=O)[nH]c2=O)[C@@]2(CCO2)[C@@H]1O)Oc1ccccc1` (stereo partly drawn) [Compound 12d], the CC50 in data set [1] and in data set [3] was > 98 µM in each case. The EC50 was > 98 µM in the data set on HIV [2] and 5.5 µM with HCV type 1b replicon (setting [5]).

For the compound `CC[C@H](NP(=O)(OC[C@H]1O[C@@H](n2ccc(=O)[nH]c2=O)[C@@]2(CCO2)[C@@H]1O)Oc1ccccc1)C(=O)OCc1ccccc1` (stereo partly drawn) [Compound 12a], the CC50 in data set [1] and in data set [3] was > 98 µM each time. The figures for the EC50 in the data set on HIV [2] and with HCV type 1b replicon (setting [5]) were > 98 µM and 3.4 µM, respectively.

In the case of `O=C(CNP(=O)(OC[C@H]1O[C@@H](n2ccc(=O)[nH]c2=O)[C@@]2(CCO2)[C@@H]1O)Oc1ccc(Cl)cc1)OCc1ccccc1` (stereo partly drawn) [Compound 12m], the CC50 in data set [1] and in data set [3] was > 98 µM in each case. Further, the EC50 is > 98 µM in the data set on HIV [2] and 7.17 µM in the data set on HCV type 1b replicon (setting [5]).

On to `CC[C@H](NP(=O)(OC[C@H]1O[C@@H](n2ccc(=O)[nH]c2=O)[C@@]2(CCO2)[C@@H]1O)Oc1ccccc1)C(=O)OC(C)C` (stereo partly drawn) [Compound 12i], for which the CC50 in data set [1] and in data set [3] was > 98 µM each time. Besides, the EC50 was > 98 µM in the data set on HIV [2] and > 96 µM in the data set on HCV type 1b replicon (setting [5]).

As to `O=c1ccn([C@@H]2O[C@H](CO)[C@@H](O)[C@]23CCO3)c(=O)[nH]1` [1-(2-O,2-C-ethano-β-D-ribofuranosyl)uracil], in the data set with HIV [4], the “activity against HIV” value is listed as “no activity”.

Turning to `C[C@H](NP(=O)(OC[C@H]1O[C@@H](n2ccc(=O)[nH]c2=O)[C@@]2(CCO2)[C@@H]1O)Oc1ccccc1)C(=O)OCc1ccccc1` (stereo partly drawn) [Compound 12b], the CC50 in data set [1] and in data set [3] was > 98 µM throughout. The figures for the EC50 in the data set on HIV [2] and in the data set on HCV type 1b replicon (setting [5]) were > 98 µM and 3.7 µM, respectively.

In the case of `C[C@H](NP(=O)(OC[C@H]1O[C@@H](n2ccc(=O)[nH]c2=O)[C@@]2(CCO2)[C@@H]1O)Oc1cccc2ccccc12)C(=O)OCc1ccccc1` (stereo partly drawn) [Compound 12k], the CC50 in data set [1] and in data set [3] was > 98 µM each time. For the same compound, the EC50 in the data set on HIV [2] is > 76.9 µM; with HCV type 1b replicon (setting [5]), 2 µM.

Turning to `Cc1ccc(C(C)C)c(OP(=O)(N[C@@H](C)C(=O)OCc2ccccc2)OC[C@H]2O[C@@H](n3ccc(=O)[nH]c3=O)[C@@]3(CCO3)[C@@H]2O)c1` (stereo partly drawn) [Compound 12f], the values for the CC50 in data set [1] and in data set [3] were 1.3 µM and 18.7 µM, respectively. In addition, the EC50 in the data set with HIV [2] was > 98 µM; in the data set with HCV type 1b replicon (setting [5]) it was 8.7 µM.

Turning to `C[C@H](NP(=O)(OC[C@H]1O[C@@H](n2ccc(=O)[nH]c2=O)[C@@]2(CCO2)[C@@H]1O)Oc1ccccc1)C(=O)OCC(C)(C)C` (stereo partly drawn) [Compound 12c], the CC50 in data set [1] and in data set [3] was > 98 µM in each case. Besides, the EC50 with HIV [2] is > 98 µM; in the data set with HCV type 1b replicon (setting [5]), 5.6 µM.

For the compound `O=C(OCc1ccccc1)[C@@H](NP(=O)(OC[C@H]1O[C@@H](n2ccc(=O)[nH]c2=O)[C@@]2(CCO2)[C@@H]1O)Oc1ccccc1)c1ccccc1` (stereo partly drawn) [Compound 12h], the results for the CC50 in data set [1] and in data set [3] were > 98 µM and > 88 µM, respectively. Further, the EC50 in the data set with HIV [2] was > 98 µM; with HCV type 1b replicon, 79.6 µM.

For `Cc1cn([C@@H]2O[C@H](CO)[C@@H](O)[C@]23CCO3)c(=O)[nH]c1=O` [1-(2-O,2-C-ethano-β-D-ribofuranosyl)thymine], the “activity against HIV” value with HIV [4] was “no activity”.

Take `COC(=O)C(C)(C)NP(=O)(OC[C@H]1O[C@@H](n2ccc(=O)[nH]c2=O)[C@@]2(CCO2)[C@@H]1O)Oc1ccccc1` (stereo partly drawn) [Compound 12e, methyl 2-[[[(4R,5R,7R,8R)-5-(2,4-dioxo-3,4-dihydropyrimidin-1(2H)-yl)-8-hydroxy-1,6-dioxaspiro[3.4]octan-7-yl]methoxy](phenoxy)phosphorylamino]-2-methylpropanoate]: the CC50 in data set [1] and in data set [3] was > 98 µM throughout. Besides, the half-maximal effective concentration (EC50) with HIV [2] was > 98 µM; in the data set on HCV type 1b replicon (setting [5]), 23.4 µM.

On to `CC(C)COC(=O)[C@H](C)NP(=O)(OC[C@H]1O[C@@H](n2ccc(=O)[nH]c2=O)[C@@]2(CCO2)[C@@H]1O)Oc1ccccc1` (stereo partly drawn) [Compound 12l], for which the CC50 in data set [1] and in data set [3] was > 98 µM each time. Besides, the EC50 in the data set on HIV [2] was > 98 µM; in the data set on HCV type 1b replicon (setting [5]) it was 0.44 µM.

These data come from patent publication US8933052B2, “Uracyl spirooxetane nucleosides” (Janssen Products, LP, priority 2009, dated 2015).
